Experiment: Brain tissue binding by equilibrium dialysis, rat brain homogenate
Type: in vitro ADME
Conditions: male, Sprague Dawley, pH 7.4, read-out: Rat brain tissue binding (Fu %)
Description: Methods: Plasma protein binding and blood tissue binding of test items (0.5 μM) was determined using biological samples from male Sprague Dawley (SD) rats and humans. […] Dexamethasone was used as a control compound for lung tissue binding. Various biological samples were spiked with test compounds according to the methods that follow.
Preparation of brain homogenate samples: Test items were dissolved in DMSO (or an appropriate solvent) to give a 10 mM solution. Further dilutions, to obtain […] working solutions (WS), were then prepared using 50% acetonitrile in Milli Q water. These 100×WS were used to spike the brain homogenate to obtain a final concentration of 5 μM. From this initial spiking solution, control samples (n=3) referred to as T=0, were immediately extracted by protein precipitation.
An equilibrium dialysis method was performed to determine protein binding in the various biological samples described herein. Materials were prepared and methods were in accordance with the following procedures.
Membranes were prepared for use in the equilibrium dialysis experiment. by soaking in deionized water for at least 60 minutes. After this period, 20% of pure ethanol was added, and the membranes were left in this solution for at least 20 minutes. The membranes were then rinsed in Milli-Q water prior to use.
To initiate the experiment, 150 μL of test item-free buffer (isotonic phosphate buffer for plasma and blood, artificial CSF buffer for brain or HBSS buffer for lung) was dispensed on one half-well of a 96-well dialyzer apparatus (HTDialysis LLC), and 150 μL of spiked matrix (plasma, blood, brain or lung) was loaded on the other half-well. Alternative volumes may be used according to the operating instructions of HTDialysis.
The artificial cerebrospinal fluid (CSF) buffer was prepared as follows, NaCl 3.652 g, KCl 93.2 mg, MgCl2 119.96 mg, CaCl2 92.61 mg, Na2HPO4*H2O 268.0 mg. These were dissolved in […] of MilliQ water, and the pH was adjusted to a pH of 7.4 with H3PO4.
Dialysis buffer was prepared by dissolving Na2HPO4 8.69 g, KH2PO4 1.90 g, and NaCl 4.11 g in […] of MilliQ water, and adjusting the pH to 7.4 with H3PO4. […]
Samples were then injected onto an HPLC MS/MS or UPLC MS/MS system. In order to control the integrity of the membrane after the dialysis process, the presence of protein was assessed in the buffer compartment. […]
Samples were analyzed in a LC-MS/MS system using an analytical method to monitor the compound to internal standard peak area ratios as representative of the compound concentrations. Alternatively, samples were analyzed by RapidFire. […]
In the case of COC(=O)c1cc2c(cc1OC)CC(N)C2 (stereo not shown) [CMP-401], the fraction unbound at 5 h, 5 μM is reported as > 0.5.
For COC(=O)c1ccc2c(c1)CC(N)C2 (stereo not shown) [CMP-405, 2-aminoindane-5-methylcarboxylate], the fraction unbound at 5 h, 5 μM was 0.24.
For COc1ccc2c(c1)CC(N)C2 (stereo not shown) [MEAI, 5-methoxy-2-aminoindane], the fraction unbound at 5 h, 5 μM was 0.33.
COc1cc2c(cc1C)CC(N)C2 (stereo not shown) [MMAI, 5-methoxy-6-methyl-2-aminoindane] showed a fraction unbound at 5 h, 5 μM of 0.12.

— patent US20260159474A1, “Aminoindane Compounds and Compositions and Methods of Their Therapeutic Use” (Solvonis Therapeutics Ireland Holdings Limited, priority 2021, published 2026)
